Patent publication US8329737B2, “Benzimidazoles as selective kinase inhibitors” (YM Biosciences Australia PTY Ltd, priority 2004, dated 2012)

The compounds below were run against T1, Jak2 (Homo sapiens, UniProt O60674) (assay: JAK kinase assay (ELISA or Alphascreen), JAK2 kinase domain). Details: capacity to inhibit 50% of JAK activity at 20 μM, standard conditions.
T1 construct: The kinase domain of humanJAK2 was amplified from U937mRNA; His tag (from the pFastBac HTc vector; purified on nickel chelate); made in house; host or cells: baculovirus; Sf9 for virus, High Five insect cells for production
Format: biochemical
Procedure: (§1) For screening purposes, compounds were diluted in 96 well plates at a concentration of 20 μM. Plates were warmed at 37° C. for 30 minutes before assay.
The kinase domain of humanJAK2 was amplified from U937mRNA using the polymerase chain reaction with the following primers: […]
JAK2 PCR products were cloned into the pFastBac HTc expression vector (Gibco®) via the Sal I and Not I sites. The JAK2 plasmid was then transformed into competent DH10Bac cells (Gibco®), and the recombinant baculovirus produced prepared for transfection into Sf9 insect cells.
Baculovirus preparations from each of the JAK family members were infected into five litres of High Five cells (Invitrogen) grown in High Five serum free medium (Invitrogen) to a cell density of approximately 1-2×10^6 cells/ml. Cells are infected with virus at a MOI of 0.8-3.0. Cells were harvested and lysed. […]
Kinase assays were performed in a 96 well capture-based ELISA assay or in 384 well Optiplates (Packard) using an Alphascreen Protein Tyrosine Kinase kit. […] In the ELISA assay tyrosine phosphorylation was quantitated following transfer to an avidin coated ELISA plate using peroxidase-linked anti-phospho-tyrosine antibody PY20. […] The ELISA plates were read on a BMG Fluorostar, the Alphascreen plates were read on a Packard Fusion Alpha. […]

T1 sequence (O60674 849-1124 limits assumed): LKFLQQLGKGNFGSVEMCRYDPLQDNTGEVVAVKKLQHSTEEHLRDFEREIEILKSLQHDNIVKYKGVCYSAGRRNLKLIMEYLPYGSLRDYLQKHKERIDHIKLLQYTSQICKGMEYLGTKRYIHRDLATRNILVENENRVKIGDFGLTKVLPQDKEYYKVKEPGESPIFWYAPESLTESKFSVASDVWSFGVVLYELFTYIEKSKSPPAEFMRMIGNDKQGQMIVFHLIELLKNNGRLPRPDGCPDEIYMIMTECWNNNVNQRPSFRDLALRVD

| Structure (SMILES) | Jak2 |
| --- | --- |
| C=CC(=O)Nc1ccc2ncn(-c3cncc(N[C@@H](C)c4ccccc4)n3)c2c1 [N-[1-(6-([(1S)-1-Phenylethyl]amino]pyrazin-2-yl)-1H-benzimidazol-6-yl)acrylamide] | + (Compounds that exhibited a capacity to inhibit 50% of JAK activity at a concentration of 20 μM (measured under standard conditions, see Methods), are designated as “+”) |

Each compound was assayed against T2, Jak3 (Homo sapiens, UniProt P52333) (assay: JAK kinase assay (ELISA or Alphascreen), JAK3 kinase domain). Details: after 20 minute incubation with enzyme (prior to addition of ATP); read-out: apparent “IC50”.
T2 construct: The kinase domain of humanJAK3 was amplified from U937mRNA; His tag (from the pFastBac HTb vector; purified on nickel chelate); made in house; host or cells: baculovirus; Sf9 for virus, High Five insect cells for production
Format: biochemical
Procedure: as §1
The kinase domain of humanJAK3 was amplified from U937mRNA using the polymerase chain reaction with the following primers: […]
JAK3 PCR products were cloned into the pFastBac HTb expression vector (Gibco®) via the Xho I and Kpn I sites. The JAK3 plasmid was then transformed into competent DH10Bac cells (Gibco®), and the recombinant baculovirus produced prepared for transfection into Sf9 insect cells.
Baculovirus preparations from each of the JAK family members were infected into five litres of High Five cells (Invitrogen) grown in High Five serum free medium (Invitrogen) to a cell density of approximately 1-2×10^6 cells/ml. Cells are infected with virus at a MOI of 0.8-3.0. Cells were harvested and lysed. JAK kinase domains were purified by affinity chromatography on a Probond (Invitrogen) nickel chelate affinity column.
Kinase assays were performed in a 96 well capture-based ELISA assay or in 384 well Optiplates (Packard) using an Alphascreen Protein Tyrosine Kinase kit. In either case using approximately 1.5 μg of affinity purified PTK domain in the presence of 50 mM HEPES, pH 7.5, 10 mM MgCl2, 150 mM NaCl and 10 μM-1 mM ATP. The biotinylated substrate biotin-EGPWLEEEEEAYGWMDF-NH2 (SEQ ID NO:9) (final concentration 5 μM) was used as substrate. In the ELISA assay tyrosine phosphorylation was quantitated following transfer to an avidin coated ELISA plate using peroxidase-linked anti-phospho-tyrosine antibody PY20. In the Alphascreen assay, Alphascreen phosphotyrosine acceptor beads followed by streptavidin donor beads were added under subdued light. The ELISA plates were read on a BMG Fluorostar, the Alphascreen plates were read on a Packard Fusion Alpha. […] Inhibitors were added in aqueous DMSO, with DMSO concentrations never exceeding 1%.

T2 sequence (P52333 822-1111 limits assumed): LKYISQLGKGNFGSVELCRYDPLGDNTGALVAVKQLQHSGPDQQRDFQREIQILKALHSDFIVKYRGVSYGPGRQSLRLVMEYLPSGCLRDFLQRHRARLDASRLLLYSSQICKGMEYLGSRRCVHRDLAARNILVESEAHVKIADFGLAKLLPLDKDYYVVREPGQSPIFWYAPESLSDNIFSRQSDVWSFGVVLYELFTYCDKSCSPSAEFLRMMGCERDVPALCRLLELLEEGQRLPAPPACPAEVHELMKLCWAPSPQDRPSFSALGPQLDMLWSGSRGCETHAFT

| IC50 | Structure (SMILES) |
| --- | --- |
| ~40 nM | C=CC(=O)Nc1ccc2ncn(-c3cncc(NC(C)(C)C)n3)c2c1 [Example 20, N-{1-[6-(tert-Butylamino)pyrazin-2-yl]-1-H-benzimidazol-6-yl}acrylamide] |

Same assay, conditions: after 90 min pre-incubation; read-out: apparent “IC50”

| IC50 | Structure (SMILES) |
| --- | --- |
| 7 nM | C=CC(=O)Nc1ccc2ncn(-c3cncc(NC(C)(C)C)n3)c2c1 [Example 20, N-{1-[6-(tert-Butylamino)pyrazin-2-yl]-1-H-benzimidazol-6-yl}acrylamide] |

Same assay, conditions: capacity to inhibit 50% of JAK activity at 20 μM, standard conditions

| inhibition at 20 µM | Structure (SMILES) | Jak3 |
| --- | --- | --- |
| > 50% | C=CC(=O)Nc1ccc2ncn(-c3cncc(N[C@@H](C)c4ccccc4)n3)c2c1 [N-[1-(6-([(1S)-1-Phenylethyl]amino]pyrazin-2-yl)-1H-benzimidazol-6-yl)acrylamide] |  |
| > 50% | C=CC(=O)Nc1ccc2ncn(-c3cncc(N(C)C(C)C)n3)c2c1 |  |
| > 50% | C=CC(=O)Nc1ccc2ncn(-c3cncc(Cl)n3)c2c1 [N-[1-(6-Chloropyrazin-2-yl)-1H-benzimidazol-6-yl]acrylamide] |  |
| > 50% | C=CC(=O)Nc1ccc2ncn(-c3cncc(N4CCN(C)CC4)n3)c2c1 [N-{1-[6-(4-Methylpiperazin-1-yl)pyrazin-2-yl]-1H-benzimidazol-6-yl}acrylamide] |  |
| > 50% | C=CC(=O)Nc1ccc2ncn(-c3cncc(-c4ccncc4)n3)c2c1 |  |
| > 50% | C=CC(=O)Nc1ccc2ncn(-c3cncc(N4CCOCC4)n3)c2c1 [N-[1-(6-morpholin-4-ylpyrazin-2-yl)-1H-benzimidazol-6-yl]acrylamide] |  |
| > 50% | C#CC(=O)Nc1ccc2ncn(-c3cncc(NC(C)(C)C)n3)c2c1 |  |
| > 50% | C=CC(=O)Nc1ccc2ncn(-c3cncc(-c4ccc(C)o4)n3)c2c1 |  |
| > 50% | C=CC(=O)Nc1ccc2ncn(-c3cncc(N[C@H](C)CC)n3)c2c1 |  |
| > 50% | C=CC(=O)Nc1ccc2ncn(-c3cncc(-c4cccnc4)n3)c2c1 |  |
| > 50% | C=CC(=O)Nc1ccc2ncn(-c3cncc(-c4ccc(F)c(Cl)c4)n3)c2c1 [N-{1-[6-(3-Chloro-4-fluorophenyl)pyrazin-2-yl]-1H-benzimidazol-6-yl}acrylamide] |  |
| > 50% | C=CC(=O)Nc1ccc2ncn(-c3cncc(N4CCCCC4)n3)c2c1 |  |
| > 50% | C=CC(=O)Nc1ccc2ncn(-c3cncc(-c4ccsc4)n3)c2c1 [N-[1-(6-Thien-3-ylpyrazin-2-yl)-1H-benzimidazol-6-yl]acrylamide] |  |
| > 50% | C=C(C)C(=O)Nc1ccc2ncn(-c3cncc(NC(C)(C)C)n3)c2c1 |  |

The remaining lines, values behind:

| Structure (SMILES) | inhibition at 20 µM | Jak3 |
| --- | --- | --- |
| C=CC(=O)Nc1ccc2ncn(-c3cncc(N(C)C)n3)c2c1 | > 50% |  |
| C=CC(=O)Nc1ccc2ncn(-c3cncc(N[C@@H](C)CC)n3)c2c1 | > 50% |  |
| C=CC(=O)Nc1ccc2ncn(-c3cncc(Nc4ccccc4)n3)c2c1 [N-[1-(6-Anilinopyrazin-2-yl)-1H-benzimidazol-6-yl]acrylamide] |  | + (Compounds that exhibited a capacity to inhibit 50% of JAK activity at a concentration of 20 μM (measured under standard conditions, see Methods), are designated as “+”) |
| C=CC(=O)Nc1ccc2ncn(-c3cncc(-c4cn[nH]c4)n3)c2c1 [N-{1-[6-(1H-Pyrazol-4-yl)pyrazin-2-yl]-1H-benzimidazol-6-yl}acrylamide] | > 50% |  |
| C=CC(=O)Nc1ccc2ncn(-c3cncc(NC)n3)c2c1 [N-{1-[6-(Methylamino)pyrazin-2-yl]-1H-benzimidazol-6-yl}acrylamide] | > 50% |  |
| C=CC(=O)Nc1ccc2ncn(-c3cncc(NC(C)(C)C)n3)c2c1 [drawing 98] | > 50% |  |
| C=CC(=O)Nc1ccc2ncn(-c3cncc(NCC4CC4)n3)c2c1 | > 50% |  |
| C=CC(=O)Nc1ccc2ncn(-c3cncc(N4CCCC4)n3)c2c1 | > 50% |  |
| C=CC(=O)Nc1ccc2ncn(-c3cncc(NC(C)C)n3)c2c1 [N-{1-[6-(Isopropylamino)pyrazin-2-yl]-1H-benzimidazol-6-yl]acrylamide] | > 50% |  |
| C=CC(=O)Nc1ccc2ncn(-c3cncc(-c4ccccc4)n3)c2c1 [N-[1-(6-Phenylpyrazin-2-yl)-1H-benzimidazol-6-yl]acrylamide] | > 50% |  |
